Values joined by “and” are separate entries in the source; they are usually repeats but may differ in a detail not shown here. Equal entries are not always repeated. Where two headings read alike, the source gives them in different places.
Legend:
[1] = design: method as in PMID 22837004; details: assumed for the sampling design; fasted first dose; cited from earlier work
[2] = test system: HIV-1
Description: To achieve a constant and the earliest Tmax possible, participants received their first dose of the intervention regimen on day 0 in a fasted state. On day 0, cART and study medication intake were taken under direct supervision of the study staff. The 2-week intervention phase was followed by a 4-week post-intervention phase. Overall, participation involved 11 study visits. To obtain an additional post-intervention phase measurement for the inducible HIV-1 reservoir size, the study was amended and participants were asked to give written consent to an extra blood draw after the 4-week post-intervention phase ended. Plasma HIV-1 RNA levels (COBAS TaqMan; Roche, Basel, Switzerland; LOQ, 20 copies/ml) were monitored at all 11 visits. CD4^+ T cell counts were determined at screening, at the start and end of the intervention phase (days 0 and 14), at day 42, and at the post-intervention phase (≥day 42).

[3] = test system: HIV-1; details: for Median fold change in CA US HIV-1 RNA from baseline: pyrimethamine monotherapy excluding LUNA-10 who stopped
Description: Because of low cell numbers in the baseline sample, LUNA-06 (combination arm, participant stopped at day 7) was excluded from this primary end point analysis.
For quantification of CA US HIV-1 RNA, CD4^+ T cells were isolated from peripheral blood mononuclear cells (PBMCs) by negative selection using EasySep Human CD4^+ T Cell Enrichment Cocktail ([…] Technologies). Isolation of CD4^+ T cells was performed on ice or at 4°C (unless indicated otherwise by the manufacturer). Approximately 1.5 × 10^6 CD4^+ T cells were lysed in triplicate with TRI reagent. Total RNA was isolated by the phenol/chloroform isolation method following the manufacturer’s instructions. A minimum of 150 ng of total RNA was deoxyribonuclease (DNase)–treated following the manufacturer’s instructions (DNase I, Amplification Grade, Invitrogen), and complementary DNA (cDNA) synthesis was performed in duplicate with SuperScript II (Invitrogen) following the manufacturer‘s instructions. Absolute quantification of CA US HIV-1 RNA was performed following a modified version of Pasternak et al. methodology ([72]). Briefly, the first round of nested amplification was performed in a final volume of 25 μl using 10 μl of cDNA, 2.5 μl of 10× PCR buffer (Life Technologies), 1 μl of 50 mM MgCl2 (Life Technologies), 1 μl of 10 mM deoxynucleotide triphosphate (dNTP) (Life Technologies), 0.075 μl of 100 μM US forward primer, 0.075 μl of 100 μM US reverse 1 primer, and 0.2 μl of Platinum Taq polymerase (Life Technologies) at 95°C for 5 min, followed by 15 cycles at 95°C for 30 s, 55°C for 30 s, and 72°C for […]. The second round of amplification was performed in a final volume of 25 μl using 2 μl of preamplified cDNA, 2.5 μl of […] PCR buffer (Life Technologies), 1 μl of 50 mM MgCl2 (Life Technologies), 1 μl of 10 mM dNTPs (Life Technologies), 0.05 μl of 100 μM US forward primer, 0.05 μl of 100 μM US reverse 2 primer, 0.0375 μl of US probe, and 0.2 μl of Platinum Taq polymerase (Life Technologies) at 95°C for 5 min, followed by 45 cycles at 95°C for 30 s and 60°C for 1 min. The list of primers and probe is available in table S9. The absolute number of US copies in the PCR was calculated using a standard curve ranging from 2 to 512 copies of a plasmid containing the full-length HIV-1 genome (pNL4.3.Luc.R-E-). […] The quantity of CA US HIV-1 RNA was expressed as the number of copies per 150 ng of input RNA in reverse transcription.
The measurements related to the end points CA US HIV-1 RNA, MS HIV-1 RNA, plasma HIV-1 RNA, and drug plasma levels were described as median with IQR or full range. […] The fold change difference per study arm from pretreatment CA US HIV-1 RNA levels to the time points 6 hours, day 14, and day 42 after first dosing was calculated by adding up the fold change per individual divided by the total number of measurements available per time point. We analyzed the primary end point by a generalized estimating equation model to evaluate whether any difference in the CA US HIV-1 RNA existed at any time point during the trial in any of the three interventional arms compared to the control arm. An interaction term of time and treatment was included. […] The difference between the observed and expected amount of CA US HIV-1 RNA was calculated, and combination therapy was considered synergistic if the difference and its 95% confidence interval were >0. Because of the number of participants in this pilot, all secondary end points were exploratory.

[4] = test system: BAF complex; assay: BAF complex target gene expression (IL-10, SOCS3, CBX7; control B-ACT) by RT-qPCR in participants; format: in vivo, human
Description: We reasoned that the effect on the expression of these gene targets at later time points (days 14 and 42) would be less useful as specific biomarker of BAF complex inhibition due to treatment interruptions and potential induction via other pathways. […] These findings are consistent with, and might be the consequence of, the generally lower plasma pyrimethamine Ctrough in participants that received the combined intervention regimen compared to those that received solely pyrimethamine.
RT-qPCR reactions were conducted using GoTaq qPCR Master Mix (Promega) following the manufacturer’s protocol. The following thermal cycling protocol was used for amplification: 3 min at 95°C, followed by 40 cycles of 95°C for 10 s and 60°C for 30 s. Expression data were calculated using the 2^−∆∆Ct methodology ([73]). Cyclophilin A was used as a housekeeping gene for the analysis. The list of primers is available in table S9.

[5] = Plasma drug concentrations (pyrimethamine UPLC-MS/MS, VPA assay, unbound dolutegravir) in trial participants; format: in vivo, human; details: for concentration at 6 h / concentration at 14 day: human, plasma, oral; for concentration at 14 day: day 14
Description: Self-reported adherence was assessed at each study visit, and empty pill strips were collected after the 2-week intervention phase. […] A gradient (0.3 ml/min) with two eluents was used (A: 2 mM ammonium acetate + 0.1% formic acid in water; B: 2 mM ammonium acetate + 0.1% formic acid in methanol). […] For measurement validation, we performed linearity, correctness, LOD and lower LOQ, repeatability, reproducibility, measurement uncertainty, robustness, and carryover. […] Unbound dolutegravir plasma concentrations were quantified with a validated UPLC-MS/MS bioquantification method as previously described ([61]).

[6] = individual participants, one value each, /N, /P suffix not kept
[7] = individual participants, one value each, below LOQ imputed as 16, listed as PYR
[8] = day 0, 6 hours after first dose relative to pretreatment, arm median
[9] = individual participants, one value each, listed as PYR

## CCc1nc(N)nc(N)c1-c1ccc(Cl)cc1 [pyrimethamine]
[1]
  Tmax: approximately 4 hours
[2]; day 1 time point
  Induction of plasma viremia: no evidence that pyrimethamine induced plasma viremia
[2]; during the study at the fixed measurements, those with pyrimethamine exposure
  Proportion of samples with plasma HIV-1 RNA above the assay detection limit: 22.2%
[2]; entire 6-week trial period, two on VPA, one on pyrimethamine, one on combination
  Plasma HIV-1 RNA in the participants not remaining below LOQ: < 50 copies/ml
[2]; [6]
  Plasma HIV-1 RNA, Day 0, 6hr: < 20
  Plasma HIV-1 RNA, Day 1: < 20
  Plasma HIV-1 RNA, Day 7: < 20
  Plasma HIV-1 RNA, Day 10: < 20
  Plasma HIV-1 RNA, Day 14: < 20
  Plasma HIV-1 RNA, Day 15: < 20
  Plasma HIV-1 RNA, Day 21: < 20
  Plasma HIV-1 RNA, Day 42: < 20
[2]; individual participants, one value each, /N, /P suffix not kept, listed as PYR
  Plasma HIV-1 RNA, Day 28: < 20 (6×) and 20
[2]; individual participants, one value each, pretreatment, /N, /P suffix (genome not detected / detected below quantitation) not kept
  Plasma HIV-1 RNA, Day 0, 0hr: < 20
[3]; 6 hours after first dose, arm mean
  Mean fold change in CA US HIV-1 RNA: 2.11 fold
[3]; 6 hours after the first dose
  PLWH with increased CA US HIV-1 RNA (responders): six of seven
[3]; after 6 hours, the two arms exposed to pyrimethamine pooled (with and without VPA)
  Median fold change CA US HIV-1 RNA: 1.8 fold
[3]; day 0, t = 0 hours (pretreatment baseline, normalisation point)
  Median fold change in CA US HIV-1 RNA (normalized to day 0, 0 hours): 1 fold
[3]; day 0, t = 6 hours after first dose, arm median, PLWH on cART, oral PYR 200 mg day 1 then 100 mg once daily, VPA 30 mg/kg per day
  Median fold change in CA US HIV-1 RNA (normalized to day 0, 0 hours): 2.1073 fold
[3]; day 14 (end of treatment), arm median, PLWH on cART
  Median fold change in CA US HIV-1 RNA (normalized to day 0, 0 hours): 1.9 fold
[3]; day 14 (end of treatment), arm median, PLWH on cART, listed as Pyrimethamine
  Median fold change in CA US HIV-1 RNA (normalized to day 0, 0 hours): 1.9129 fold
[3]; day 14
  Median fold change in CA US HIV-1 RNA from baseline: 1.8 fold
[3]; day 42 (28 days after end of treatment), arm median, PLWH on cART
  Median fold change in CA US HIV-1 RNA (normalized to day 0, 0 hours): 1.7 fold
[3]; day 42 (28 days after end of treatment), arm median, PLWH on cART, listed as Pyrimethamine
  Median fold change in CA US HIV-1 RNA (normalized to day 0, 0 hours): 1.6775 fold
[3]; day 42
  Median fold change in CA US HIV-1 RNA from baseline: 1.6 fold
[3]; [7]
  CA US HIVRNA copies/150 ng Total RNA Day 0, 6 hours: 125,01 copies/150 ng Total RNA and 126,50 copies/150 ng Total RNA and 51,31 copies/150 ng Total RNA and 94,04 copies/150 ng Total RNA and 39,82 copies/150 ng Total RNA and 55,52 copies/150 ng Total RNA and 96,01 copies/150 ng Total RNA
  CA US HIVRNA copies/150 ng Total RNA Day 14: 114,91 copies/150 ng Total RNA and 111,02 copies/150 ng Total RNA and 74,67 copies/150 ng Total RNA and 54,10 copies/150 ng Total RNA and 42,33 copies/150 ng Total RNA and 62,36 copies/150 ng Total RNA and 111,26 copies/150 ng Total RNA
  CA US HIVRNA copies/150 ng Total RNA Day 42: 85,80 copies/150 ng Total RNA and 54,17 copies/150 ng Total RNA and 82,71 copies/150 ng Total RNA and 69,81 copies/150 ng Total RNA and 29,28 copies/150 ng Total RNA and 101,16 copies/150 ng Total RNA and 84,39 copies/150 ng Total RNA
[3]; individual participants, one value each, pretreatment baseline, below LOQ imputed as 16, listed as PYR
  CA US HIVRNA copies/150 ng Total RNA Day 0, pretreatment: 32,60 copies/150 ng Total RNA and 68,92 copies/150 ng Total RNA and 24,35 copies/150 ng Total RNA and 49,43 copies/150 ng Total RNA and 16,00 copies/150 ng Total RNA and 79,98 copies/150 ng Total RNA and 51,15 copies/150 ng Total RNA
[4]; control gene, individual participants, one value each, listed as PYR
  Fold-induction in B-ACTIN gene expression at Day 0, 6 hours relative to Day 0, pretreatment: 1.29 and 1.51 and 0.82 and 0.94 (2×) and 0.86 and 1.04
[4]; [8]
  Median fold increase in CBX7 gene expression: 1.68 fold
  Median fold increase in IL-10 gene expression: 2.55 fold
  Median fold increase in SOCS3 gene expression: 2.53 fold
[4]; [9]
  Fold-induction in CBX7 gene expression at Day 0, 6 hours relative to Day 0, pretreatment: 1.68 and 1.12 and 12.42 and 4.23 and 2.02 and 1.25 and 1.03
  Fold-induction in IL-10 gene expression at Day 0, 6 hours relative to Day 0, pretreatment: 2.24 and 2.74 and 1.48 and 1.74 and 6.66 and 6.4 and 2.54
  Fold-induction in SOCS3 gene expression at Day 0, 6 hours relative to Day 0, pretreatment: 2.52 and 2.27 and 0.60 and 4.59 and 5.35 and 1.14 and 3.27
[5]; PLWH on efavirenz- or nevirapine-containing cART
  Median plasma concentration of pyrimethamine with CYP3A inducers: did not have lower
[5]; day 42 (28 days after end of treatment)
  Drug detectable in plasma: No pyrimethamine or VPA was detectable
[5]; 200 mg, Median plasma total pyrimethamine concentration, 6 hours after first dose (200 mg), pyrimethamine alone, seven participants
  concentration at 6 h: 1630 ng/mL
[5]; 200 mg, Median pyrimethamine Ctrough by integrase inhibitor exposure, 6 hours, group printed first of 'versus' pair
  concentration at 6 h: 1300 ng/mL
[5]; 200 mg, Median pyrimethamine Ctrough by integrase inhibitor exposure, 6 hours, group printed second of 'versus' pair
  concentration at 6 h: 1400 ng/mL
[5]; Median plasma total pyrimethamine concentration, 6 hours after first dose, combination arm with VPA
  concentration at 6 h: 1160 ng/mL
[5]; Median pyrimethamine Ctrough by integrase inhibitor exposure, uninterrupted pyrimethamine, group printed first
  concentration at 14 day: 2800 ng/mL
[5]; Median pyrimethamine Ctrough by integrase inhibitor exposure, uninterrupted pyrimethamine, group printed second
  concentration at 14 day: 3200 ng/mL
[5]; Median pyrimethamine Ctrough, combination arm with VPA, four PLWH with uninterrupted exposure
  concentration at 14 day: 1990 ng/mL
[5]; Median pyrimethamine Ctrough, monotherapy arm, six PLWH with uninterrupted exposure
  concentration at 14 day: 3480 ng/mL
[5]; Pyrimethamine plasma level, individual, LUNA-21 (combination arm), stopped treatment at day 10
  concentration at 14 day: 2520 ng/mL

Source: article PMC10017042 (Science Advances, 2023)
